In US20040242463A1, “Compositions for stabilizing oxygen-labile species” (priority 1999, published 2004):

Assay: Stability of formulations containing retinol, ascorbic acid and/or tocopherol, HPLC assay
Format: physicochemical
From the text: The stability of different formulations containing retinol, ascorbic acid and/or tocopherol as set forth in Examples 7 and 8 below were monitored in terms of appearance and HPLC assay. The degraded products of retinol, ascorbic acid or tocopherol are yellow or brownish in color. The freshly prepared samples were white creams. Discoloration to yellow or brown indicates the instability.

| Effect on stability of tocopherol | Effect of addition on the stability of retinol and tocopherol | SMILES |
| --- | --- | --- |
| assists in stabilizing tocopherol | – | O=C1O[C@H]([C@@H](O)CO)C(O)=C1O [ascorbic acid] |
| – | slightly enhances | CC(=O)N[C@@H](CS)C(=O)O [N-acetlcysteine, N-acetylcysteine] |
